For data set [1], the system named is Hepatocyte. The experiment in a line: Inhibition of gluconeogenesis in Sprague-Dawley rat hepatocytes at 10 uM incubated for 1.5 hrs followed by sodium pyruvate and sodium lactate addition and measured after 4 hrs by colorimetric analysis relative to control. Format: functional. Particulars: time 5.5 hrs.
The subject of data set [2] is Hepatocyte. Nature of the data set: Inhibition of gluconeogenesis in Sprague-Dawley rat hepatocytes at 0.3 uM incubated for 1.5 hrs followed by sodium pyruvate and sodium lactate addition and measured after 4 hrs by colorimetric analysis relative to control. The data set is classed as functional. Particulars: time 5.5 hrs.
In data set [3] the test system is Hepatocyte. The experiment in a line: Inhibition of gluconeogenesis in Sprague-Dawley rat hepatocytes at 1 uM incubated for 1.5 hrs followed by sodium pyruvate and sodium lactate addition and measured after 4 hrs by colorimetric analysis relative to control. The data set is classed as functional. Particulars: time 5.5 hrs.
The test system of data set [4] is Hepatocyte. The experiment in a line: Inhibition of gluconeogenesis in Sprague-Dawley rat hepatocytes at 3 uM incubated for 1.5 hrs followed by sodium pyruvate and sodium lactate addition and measured after 4 hrs by colorimetric analysis relative to control. Format: functional. Particulars: time 5.5 hrs.
For data set [5], the system named is Mus musculus. Nature of the data set: Inhibition of gluconeogenesis in CD-1 mouse assessed as decrease in blood glucose level at 50 mg/kg administered via gavage at 2 hrs prior to pyruvate sodium challenge and measured for 2 hrs by pyruvate tolerance test. The data set is classed as functional, organism-based. The following applies: time 4.0 hrs.
In data set [6] the test system is Mus musculus. The experiment in a line: Inhibition of gluconeogenesis in CD-1 mouse assessed as decrease in blood glucose level at 50 mg/kg administered via gavage at 1 hr prior to pyruvate sodium challenge and measured for 2 hrs by pyruvate tolerance test. Format: functional, organism-based. The following applies: time 3.0 hrs.
The subject of data set [7] is Mus musculus. Nature of the data set: Antihyperglycemic activity in diabetic ob/ob mouse assessed as reduction in non-fasting blood glucose level at 15 mg/kg administered via gavage qd for 24 days and measured on day 24. Format: functional, organism-based. The following applies: time 24.0 day.
The subject of data set [8] is Mus musculus. Nature of the data set: Antihyperglycemic activity in diabetic ob/ob mouse assessed as reduction in fasting blood glucose level at 15 mg/kg administered via gavage qd for 24 days and measured on day 24. Format: functional, organism-based. Particulars: time 24.0 day.
Data set [9] can be described thus: Toxicity in diabetic ob/ob mouse assessed as effect on body weight at 15 mg/kg administered via gavage qd for 24 days. Format: organism-based. The following applies: in vivo, po, 576 h, time 24 day.
Data set [10] is described as follows: Toxicity in diabetic ob/ob mouse assessed as effect on daily food intake at 15 mg/kg administered via gavage qd for 24 days. Format: organism-based. The following applies: in vivo, po, 576 h, time 24 day.

The structures appear in SMILES notation. The source made the active and inactive calls. The rule behind the calls is not given here.

With `C=CCc1ccc(OCc2ccc(C(=O)O)o2)c(OC)c1`, the “fold change (FC)” value was 0.57 in the data set with Hepatocyte [1], 0.96 in the data set on Hepatocyte [2], 0.92 with Hepatocyte [3] and 0.73 in the data set with Hepatocyte [4]. Moreover, the inhibition entry with Mus musculus [5] and in the data set on Mus musculus [6] was “Active” in each case. For the same compound, the outcome in the data set with Mus musculus [7] and in the data set with Mus musculus [8] was Active. The Activity entry in data set [9] and in data set [10] was “Non-Toxic” throughout.
